Assay results: ChEMBL document CHEMBL1201862, “PubChem BioAssay data set” (2004)
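Where inhibition never reached the appropriate level, the endpoint shown equals the highest concentration tested. Otherwise, values were interpolated linearly from a five-concentration, 48-hour dose response in 96-well plates. GI50 = concentration required for 50% inhibition of growth.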 The source made the active and inactive calls. Cut-off read from the data, not from the text of the source: active = GI50 up to about 1.1 µM and inactive = higher.

Experiments:
Assay in all cases: NCI-60 cell line screen, 48 h
HCC 2998 = system: HCC 2998
OVCAR-4 = system: OVCAR-4
A549 = system: A549
SK-OV-3 = system: SK-OV-3
PC-3 = system: PC-3
SR = system: SR
MCF7 = system: MCF7
OVCAR-5 = system: OVCAR-5
MDA-MB-231 = system: MDA-MB-231
COLO 205 = system: COLO 205
UACC-257 = system: UACC-257
MDA-MB-435 = system: MDA-MB-435
OVCAR-8 = system: OVCAR-8
UACC-62 = system: UACC-62
OVCAR-3 = system: OVCAR-3
DU-145 = system: DU-145
786-0 = system: 786-0
HL-60 = system: HL-60
Hs-578T = system: Hs-578T

Row | SMILES | GI50 (HCC 2998) | GI50 (OVCAR-4) | GI50 (A549) | GI50 (SK-OV-3) | GI50 (PC-3) | GI50 (SR) | GI50 (MCF7) | GI50 (OVCAR-5) | GI50 (MDA-MB-231) | GI50 (COLO 205) | GI50 (UACC-257) | GI50 (MDA-MB-435) | GI50 (OVCAR-8) | GI50 (UACC-62) | GI50 (OVCAR-3) | GI50 (DU-145) | GI50 (786-0) | GI50 (HL-60) | GI50 (Hs-578T)
1 | CC(C)OC(=O)[C@@H](O)[C@H](CO)C1=CC([Si](C)(C)c2ccccc2)=CON1 | > 100 µM (inactive) | > 100 µM (inactive) | > 100 µM (inactive) | > 100 µM (inactive) | > 100 µM (inactive) | > 100 µM (inactive) | > 100 µM (inactive) | > 100 µM (inactive) | > 100 µM (inactive) | > 100 µM (inactive) | > 100 µM (inactive) | > 100 µM (inactive) | > 100 µM (inactive) | > 100 µM (inactive) | > 100 µM (inactive) | > 100 µM (inactive) | > 100 µM (inactive) | – | –
2 | C[C@]12CC[C@H](O)CC1=CC[C@@H]1[C@@H]2CC[C@]2(C)C(=N/N)/C(=N\O)C[C@@H]12 | – | 57.4 µM (inactive) | > 100 µM (inactive) | 76 µM (inactive) | > 100 µM (inactive) | 7.78 µM (inactive) | > 100 µM (inactive) | > 100 µM (inactive) | 32.7 µM (inactive) | 40 µM (inactive) | > 100 µM (inactive) | 2.12 µM (inactive) | > 100 µM (inactive) | 58.5 µM (inactive) | > 100 µM (inactive) | > 100 µM (inactive) | 50.7 µM (inactive) | 9.91 µM (inactive) | –
3 | c1ccc([P+](c2ccccc2)(c2ccccc2)c2ccc([P+](c3ccccc3)(c3ccccc3)c3ccccc3)cc2)cc1 | – | – | 64.9 µM (inactive) | > 100 µM (inactive) | 41.4 µM (inactive) | 0.0815 µM (active) | 32.4 µM (inactive) | 88.5 µM (inactive) | > 100 µM (inactive) | 20.1 µM (inactive) | 29.2 µM (inactive) | 49.5 µM (inactive) | 59.6 µM (inactive) | 71.6 µM (inactive) | 48.2 µM (inactive) | 52.8 µM (inactive) | > 100 µM (inactive) | 16 µM (inactive) | 31.6 µM (inactive)
4 | CS(=O)(=O)c1ccc2nc(-c3ccc(O)cc3)sc2c1 | – | – | 16.4 µM (inactive) | 17.5 µM (inactive) | 17.5 µM (inactive) | 10.1 µM (inactive) | 17.5 µM (inactive) | 17.7 µM (inactive) | 20.6 µM (inactive) | 22.2 µM (inactive) | 19.6 µM (inactive) | 18 µM (inactive) | 20.5 µM (inactive) | 17.9 µM (inactive) | 16.6 µM (inactive) | 15.7 µM (inactive) | – | 21.2 µM (inactive) | –
5 | COc1cc(S(=O)(=O)Nc2ccc(-c3csc(N4C(=O)C(Cl)C4c4ccccc4)n3)cc2)ccc1Cl (stereo not given) | – | 52.6 µM (inactive) | > 100 µM (inactive) | > 100 µM (inactive) | > 100 µM (inactive) | 3.06 µM (inactive) | 27.1 µM (inactive) | 47.4 µM (inactive) | – | 37.9 µM (inactive) | 8.45 µM (inactive) | 38.5 µM (inactive) | 20.1 µM (inactive) | 22.9 µM (inactive) | > 100 µM (inactive) | 16 µM (inactive) | 19.2 µM (inactive) | 54.6 µM (inactive) | > 100 µM (inactive)
6 | O=C(NCCCN1CCN(CCCNC(=O)Nc2cccc3ccccc23)CC1)Nc1cccc2ccccc12 | 2.29 µM (inactive) | 25.4 µM (inactive) | 17.7 µM (inactive) | – | 9.93 µM (inactive) | – | 17.5 µM (inactive) | 15.1 µM (inactive) | 2.25 µM (inactive) | 15.7 µM (inactive) | 13.2 µM (inactive) | 16.2 µM (inactive) | 18.7 µM (inactive) | 3.33 µM (inactive) | 13.6 µM (inactive) | 16.9 µM (inactive) | 18.9 µM (inactive) | 16.3 µM (inactive) | 17.5 µM (inactive)
7 | COC(=O)c1ccc2cc(O)ccc2c1 | > 100 µM (inactive) | > 100 µM (inactive) | 69.2 µM (inactive) | > 100 µM (inactive) | > 100 µM (inactive) | 22 µM (inactive) | 55 µM (inactive) | > 100 µM (inactive) | > 100 µM (inactive) | > 100 µM (inactive) | > 100 µM (inactive) | 96.6 µM (inactive) | 53.2 µM (inactive) | > 100 µM (inactive) | > 100 µM (inactive) | > 100 µM (inactive) | 89.9 µM (inactive) | – | –
8 | CN(C)CC(O)c1ccc(Cl)c2ccccc12 (stereo not given) | 15.8 µM (inactive) | 63.4 µM (inactive) | > 77.6 µM (inactive) | 74 µM (inactive) | 36.9 µM (inactive) | – | 32.7 µM (inactive) | > 100 µM (inactive) | 27.5 µM (inactive) | 20.6 µM (inactive) | 20.9 µM (inactive) | 21.6 µM (inactive) | > 90.4 µM (inactive) | 17.5 µM (inactive) | > 91 µM (inactive) | > 96.8 µM (inactive) | 48.3 µM (inactive) | 9.12 µM (inactive) | 38.2 µM (inactive)
